# Experimental data as given in article PMC2873112 (Chembiochem : a European journal of chemical biology, 2010).
# Columns and labels:
# Cop6 [1] = target: T1, Cop6 (Coprinopsis cinerea, UniProt A8NCK5, N224D); experiment: product profile by GC-MS; format: biochemical; details: turnover only
# Cop6 [2] = target: T1, Cop6; experiment: product analysis by chiral GC-MS; format: biochemical; details: purified mutant; turnover only
# T1 sequence (A8NCK5 whole entry N224D): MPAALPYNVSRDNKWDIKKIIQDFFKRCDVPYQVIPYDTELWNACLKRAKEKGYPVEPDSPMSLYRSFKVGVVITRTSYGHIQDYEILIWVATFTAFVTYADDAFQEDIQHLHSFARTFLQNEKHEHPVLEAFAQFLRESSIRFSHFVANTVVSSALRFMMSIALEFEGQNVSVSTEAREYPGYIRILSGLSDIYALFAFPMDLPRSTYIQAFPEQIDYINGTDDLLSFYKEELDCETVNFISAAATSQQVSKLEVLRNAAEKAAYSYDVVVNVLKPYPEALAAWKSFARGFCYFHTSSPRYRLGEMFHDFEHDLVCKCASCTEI
SMILES,product profile by GC-MS (Cop6 [1]),product analysis by chiral GC-MS (Cop6 [2])
"CC(C)=CCC/C(C)=C/CC/C(C)=C/COP(=O)(O)OP(=O)(O)O [(E,E)-FPP]","N224D does not affect the product profile of Cop6 with its normal substrate (E,E)-FPP",–
"CC(C)=CCC/C(C)=C/CC/C(C)=C\COP(=O)(O)OP(=O)(O)O [(Z,E)-FPP]",–,Mutant Cop6N224D now makes a small amount of an additional compound
